Laboratory results taken from patent publication US8569243B2, “Sirtuin 6 activating peptides and cosmetic or pharmaceutical composition containing them” (ISP Investments Inc., priority 2010, dated 2013).
Where no end group is shown, it is not given here.

Legend:
[1] = system: sirtuin 6 (SIRT6); test: Sirtuin 6 immunolabelling (immunofluorescence) in normal human fibroblasts; format: cell-based; settings: for SIRT6 fluorescence versus control conditions: 10^−6M or 3×10^−6 M, all conditions tested (short- and long-term); for sirtuin 6 expression stimulation effect in long-term treatment: passage 5 to passage 17
Experimental: (§1) The object of this study is to determine the influence of peptides SEQ ID No. 5 and SEQ ID No. 7 on Sirtuin 6 expression in human skin. To do this, specific labeling by immunofluorescence was carried out on normal human keratinocytes (NHK) culture and on normal human fibroblast cultures.
(§2) Protocol: NHK or normal human fibroblasts are treated once per day with a solution at 10^−6M or at 3×10^−6M of peptide SEQ ID No. 5 or peptide SEQ ID No. 7.
(§3) Short-term treatment studies for 24, 48 and 72 hours were carried out.
(§4) Long-term treatment studies were also carried out between passage 5 and passage 17 (or 12 passages) for fibroblasts and between passage 3 and passage 5 (or 2 subcultures) for NHK.
(§5) For immunolabelling by anti SIRT6 antibodies, the cells are washed and fixed with paraformaldehyde at 3.7% for 10 minutes. The cells are then incubated in the presence of a specific anti SIRT6 antibody (Abeam, ref ab62738, polyclonal rabbit), and then a secondary suitable antibody, coupled with a fluorescent dye. After mounting in a particular medium, the slides are observed by epifluorescence microscope (Nikon Eclipse E 80i microscope). Fluorescence intensity is quantified by analyzing the image using the Image-Pro Analyser version 5 software.

[2] = system: sirtuin 6 (SIRT6); test: Sirtuin 6 immunolabelling (immunofluorescence) in normal human keratinocytes (NHK); format: cell-based; settings: for SIRT6 fluorescence versus control conditions: 10^−6M or 3×10^−6 M, all conditions tested (short- and long-term); for sirtuin 6 expression stimulation effect in long-term treatment: passage 3 to passage 5
Experimental: as §1, §2, §3, §4, §5

[3] = system: transglutaminase 1 (TG1); test: Epidermal differentiation marker immunolabelling in NHK: transglutaminase 1; format: cell-based, human; settings: 10^−6 M or 3×10^−6 M, 2 passages and 11 days of treatment
Experimental: (§6) The goal of this study is to determine the influence of peptide SEQ ID No. 5 on epidermal differentiation. To do this, the expression of the main epidermal differentiation markers, specifically expressed in the keratinocytes of suprabasal layers cultivated on a long-term basis, was studied. The markers tested are transglutaminase 1 and involucrin.
(§7) Protocol: NHK in culture are treated once per day with a solution at 10^−6M or at 3×10^−6M of peptide SEQ ID No. 5, between passage 1 and passage 3 (or 2 passages and 11 days of treatment). The cells are then washed and fixed. After unmasking the specific sites, the cells are incubated in the presence of a specific antibody directed against TG1 (TEBU, ref sc-25786, polyclonal rabbit), a specific antibody directed against involucrin (Novocastra NCL-INV, mouse monoclonal, clone SYS), and then incubated in the presence of a suitable secondary antibody, coupled with a fluorescent dye. For greater ease of observation, the cell nuclei may be counterstained by DAPI (4′,6′ Di Amidino-2-Phenylindole), a fluorescent blue molecule capable of strongly bonding to DNA). After mounting in a particular medium, the slides are observed by epifluorescence microscope (Nikon Eclipse E 80i microscope).

[4] = system: involucrin; test: Epidermal differentiation marker immunolabelling in NHK: involucrin; format: cell-based, human; settings: 10^−6 M or 3×10^−6 M, 2 passages and 11 days of treatment
Experimental: as §6, §7

[5] = system: collagen I; test: Collagen I immunolabelling in normal human fibroblasts, long-term culture; format: cell-based; settings: 10^−6M or 3×10^−6M, passage 5 to 17
Experimental: (§8) The goal of this study is to determine the influence of peptide SEQ ID No. 5 on the expression of dermal extracellular matrix molecules. To do this, the expression of collagens I and III in normal human fibroblasts cultivated on a long-term basis was studied.
(§9) Protocol: Normal human fibroblasts are treated once per day with a solution at 10^−6 M or at 3×10^−6 M of peptide SEQ ID No. 5, between passage 5 and passage 17 (or 12 passages). The cells are then washed and fixed with cold methanol for 5 minutes. After unmasking specific sites, the cells are incubated in the presence of a specific antibody directed against collagen I (TEBU, ref 600-401-103, polyclonal rabbit) or against collagen III (TEBU, ref 600-401-105, polyclonal rabbit), and then incubated in the presence of a suitable secondary antibody, coupled with a fluorescent dye. After mounting in a particular medium, the slides are observed by epifluorescence microscope (Nikon Eclipse E 80i microscope).

[6] = system: collagen III; test: Collagen III immunolabelling in normal human fibroblasts, long-term culture; format: cell-based; settings: 10^−6M or 3×10^−6M, passage 5 to 17
Experimental: as §8, §9

[7] = system: normal human fibroblasts; test: Comet assay after UVB irradiation of normal human fibroblasts; format: cell-based; settings: peptide 3×10^−6 M 24 h before and 24 h after UVB 60 mJ/cm^2
Experimental: The goal of this study is to determine the protective effect of peptide SEQ ID No. 5 on damage caused to the DNA by UV radiation. To do this, a comet assay, that enables damage caused to the DNA at the cellular level to be quantified, was performed.
Protocol: Normal human fibroblasts are cultured for 24 hours with the peptide of sequence SEQ ID No. 5 at a concentration of 10^−6M or 3×10^−6M, and then irradiated with UVB radiation at a rate of 60 mJ/cm^2, and then treated again for 24 hours by the peptide at a concentration of 10^−6M or 3×10^−6M. A control condition is carried out in the absence of treatment. The cells are then detached from their support by the trypsin, then centrifuged at 1200 rotations/min for 10 minutes in order to concentrate and count them.
A defined number of cells (25,000 cells) is then included in a Low Melting agarose gel at 0.75%, and then deposited on a glass slide previously covered with agarose at 1%. The slides are then immersed in a lysis solution for 1½ hours at 4° C., and then in an alkaline solution for 20 min at 4° C. The cells are thus lyzed and the DNA is denatured. […]
Quantification software enables the mean “Tail Moment” (or length of the comet tail) applied to each condition tested to be determined This parameter provides information on the level of DNA damage: the higher this parameter, the greater the DNA degradation.

[8] = system: sirtuin 6 (SIRT6); test: Sirtuin 6 immunolabelling in NHK after oxidative stress by H2O2; format: cell-based, human
Experimental: The goal of this study is to determine the protective effect of peptide SEQ ID No. 5 on keratinocytes during oxidative stress. To do this, the expression of Sirtuin 6 was qualitatively and quantitatively evaluated by specific immunolabelling after oxidative stress by H2O2.
Protocol: The NHK in culture are treated for 24 hours with a solution at 10^−6M or 3×10^−6M of peptide SEQ ID No. 5. The cells are then incubated in the presence of H2O2 at 2 mM, rinsed and then treated for another 24 hours with a solution at 10^−6M or 3×10^−6M of peptide SEQ ID No. 5. A control that was not treated and not subjected to the H2O2 stress (control 0), as well as a control that was not treated but was subjected to the H2O2 stress (control 1) were carried out.
as §5, with “(Abcam,” for “(Abeam,”, “mouse),” for “rabbit),”

[9] = system: TRF2 protein; test: TRF2 immunolabelling in normal human fibroblasts, long-term culture; format: cell-based
Experimental: (§10) The goal of this study is to determine the influence of peptide SEQ ID No. 4 on TRF2 protein expression in human skin, a protein specifically associated with telomeres and involved in their maintenance. To do this, specific labeling by immunofluorescence was carried out on normal human keratinocytes (NHK) culture and on normal human fibroblast cultures on a long-term basis.
(§11) Protocol: NHK or normal human fibroblasts in culture are treated once per day with a solution at 10^−6M or at 3×10^−6M of peptide SEQ ID No. 4, between passage 5 and passage 17 (or 12 passages) for fibroblasts and between passage 1 and passage 2 (or 1 passage and 10 days of treatment) for NHK.
as §5, with “TRF2” for “SIRT6”, “ab13579,” for “ab62738,”, “mouse),” for “rabbit),”

[10] = system: TRF2 protein; test: TRF2 immunolabelling in normal human keratinocytes (NHK), long-term culture; format: cell-based
Experimental: as §10, §11
as §5, with “TRF2” for “SIRT6”, “ab13579,” for “ab62738,”, “mouse),” for “rabbit),”

[11] = 10^−6 M or 3×10^−6 M, long-term

| Substance | SIRT6 fluorescence versus control conditions [1] | sirtuin 6 expression stimulation effect in long-term treatment [1] | maximum increase of the SIRT6 fluorescence with relation to the control cells ([1]; treated 24 hours, 10^−6 M peptide) [%] | SIRT6 fluorescence versus control conditions [2] | sirtuin 6 expression stimulation effect in long-term treatment [2] | maximum increase of the SIRT6 fluorescence with relation to the control cells ([2]; treated 72 hours, 3×10^−6M peptide) [%] | transglutaminase 1 fluorescence versus control conditions [3] | involucrin fluorescence versus control conditions [4] | collagen I fluorescence versus control conditions [5] | collagen III fluorescence versus control conditions [6] | reduction of the Tail Moment compared to the control conditions [7] [%] | increase in SIRT6 expression with relation to control 1 (untreated, H2O2 stress) ([8]; peptide 3×10^−6 M 24 h before and 24 h after H2O2 2 mM) [%] | increase in SIRT6 expression with relation to control 1 (untreated, H2O2 stress) ([8]; peptide 10^−6M 24 h before and 24 h after H2O2 2 mM) [%] | TRF2 fluorescence versus control conditions [9, 11] | maximum increase of the TRF2 fluorescence with relation to the control cells ([9]; treated for 12 subcultures, 10^−6 M peptide) [%] | TRF2 fluorescence versus control conditions [10, 11] | maximum increase of the TRF2 fluorescence with relation to the control cells ([10]; treated for 10 days, 3×10^−6 M peptide) [%] |
| --- | --- | --- | --- | --- | --- | --- | --- | --- | --- | --- | --- | --- | --- | --- | --- | --- | --- |
| Gly-Ala-Gly-Val-Ser-Ala-Glu-NH2 (GAGVSAE-NH2) [SEQ ID No. 5] | more intense fluorescence | maintained for the long term | 47 | more intense fluorescence | maintained for the long term | 35 | More intense fluorescence | More intense fluorescence | More intense fluorescence | More intense fluorescence | 24.8 | 20 | 16 |  |  |  |  |
| Thr-Gln-Asn-Ile-Asp-Glu-Leu-NH2 (TQNIDEL-NH2) [SEQ ID No. 7] | more intense fluorescence | maintained for the long term |  | more intense fluorescence | maintained for the long term |  |  |  |  |  |  |  |  |  |  |  |  |
| GAGVSAE [SEQ ID No. 4] |  |  |  |  |  |  |  |  |  |  |  |  |  | more intense fluorescence | 63 | more intense fluorescence | 39 |
